Assays:
Assay in all cases: biochemical
Conditions in all cases: read-out: % inhibition mean (Lanthascreen)
ALK F1174L = ALK F1174L (Homo sapiens, UniProt Q9UM73, F1174L)
CDK9 (Inactive) = CDK9 (Inactive) (Homo sapiens, UniProt P50750)
GAK = GAK (Homo sapiens, UniProt O14976)
MAP3K14 (NIK) = MAP3K14 (NIK) (Homo sapiens, UniProt Q99558)
WEE1 = WEE1 (Homo sapiens, UniProt P30291)
ACVR1 (ALK2) = ACVR1 (ALK2) (Homo sapiens, UniProt Q04771)
EPHA3 = EPHA3 (Homo sapiens, UniProt P29320)
CDK2/cyclin A1 = CDK2/cyclin A1 (Homo sapiens, UniProt P24941)
ALK C1156Y = ALK C1156Y (Homo sapiens, UniProt Q9UM73, C1156Y)
MAP3K11 (MLK3) = MAP3K11 (MLK3) (Homo sapiens, UniProt Q16584)
CAMK2G (CaMKII gamma) = CAMK2G (CaMKII gamma) (Homo sapiens, UniProt Q13555)
TESK1 = TESK1 (Homo sapiens, UniProt Q15569)
[1] = molecular target: MAP2K6 (MKK6) S207E T211E (Homo sapiens, UniProt P52564, S207E/T211E)
TTK = TTK (Homo sapiens, UniProt P33981)
EIF2AK2 (PKR) = EIF2AK2 (PKR) (Homo sapiens, UniProt P19525)
NUAK2 = NUAK2 (Homo sapiens, UniProt Q9H093)
BRAF = BRAF (Homo sapiens, UniProt P15056)
GRK1 = GRK1 (Homo sapiens, UniProt Q15835)
WNK3 = WNK3 (Homo sapiens, UniProt Q9BYP7)
ERN1 = ERN1 (Homo sapiens, UniProt O75460)
ULK1 = ULK1 (Homo sapiens, UniProt O75385)
MAP3K5 (ASK1) = MAP3K5 (ASK1) (Homo sapiens, UniProt Q99683)
PKN2 (PRK2) = PKN2 (PRK2) (Homo sapiens, UniProt Q16513)
MAPK10 (JNK3) = MAPK10 (JNK3) (Homo sapiens, UniProt P53779)
ACVR2A = ACVR2A (Homo sapiens, UniProt P27037)
MKNK2 (MNK2) = MKNK2 (MNK2) (Homo sapiens, UniProt Q9HBH9)
CAMKK1 (CAMKKA) = CAMKK1 (CAMKKA) (Homo sapiens, UniProt Q8N5S9)
KIT D820E = KIT D820E (Homo sapiens, UniProt P10721, D820E)
CDK8/cyclin C = CDK8/cyclin C (Homo sapiens, UniProt P49336)
CDK8/cyclin C, sequence (P49336 whole entry): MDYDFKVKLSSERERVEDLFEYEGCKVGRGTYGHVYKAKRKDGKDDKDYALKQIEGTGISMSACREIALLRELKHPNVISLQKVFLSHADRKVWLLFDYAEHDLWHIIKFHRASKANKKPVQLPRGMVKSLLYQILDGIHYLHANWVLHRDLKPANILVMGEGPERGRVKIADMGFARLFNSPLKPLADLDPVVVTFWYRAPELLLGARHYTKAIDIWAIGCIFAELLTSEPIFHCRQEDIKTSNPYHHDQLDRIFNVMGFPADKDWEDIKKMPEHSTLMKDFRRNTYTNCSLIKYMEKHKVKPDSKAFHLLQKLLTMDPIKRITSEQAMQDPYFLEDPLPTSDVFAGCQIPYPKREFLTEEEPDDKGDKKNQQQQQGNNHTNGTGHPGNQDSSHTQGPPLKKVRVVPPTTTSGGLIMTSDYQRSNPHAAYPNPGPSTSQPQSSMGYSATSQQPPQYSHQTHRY
CDK8/cyclin C, sequence (P24863 whole entry partner): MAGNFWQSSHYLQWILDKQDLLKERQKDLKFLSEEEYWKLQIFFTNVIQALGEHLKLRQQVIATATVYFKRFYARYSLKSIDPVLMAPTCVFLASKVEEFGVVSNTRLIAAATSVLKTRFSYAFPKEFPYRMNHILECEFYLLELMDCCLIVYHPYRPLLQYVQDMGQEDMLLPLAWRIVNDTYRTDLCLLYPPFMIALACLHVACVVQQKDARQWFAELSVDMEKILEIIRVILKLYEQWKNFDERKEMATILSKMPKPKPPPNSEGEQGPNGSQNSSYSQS

MAP3K5 (ASK1), sequence (Q99683 whole entry): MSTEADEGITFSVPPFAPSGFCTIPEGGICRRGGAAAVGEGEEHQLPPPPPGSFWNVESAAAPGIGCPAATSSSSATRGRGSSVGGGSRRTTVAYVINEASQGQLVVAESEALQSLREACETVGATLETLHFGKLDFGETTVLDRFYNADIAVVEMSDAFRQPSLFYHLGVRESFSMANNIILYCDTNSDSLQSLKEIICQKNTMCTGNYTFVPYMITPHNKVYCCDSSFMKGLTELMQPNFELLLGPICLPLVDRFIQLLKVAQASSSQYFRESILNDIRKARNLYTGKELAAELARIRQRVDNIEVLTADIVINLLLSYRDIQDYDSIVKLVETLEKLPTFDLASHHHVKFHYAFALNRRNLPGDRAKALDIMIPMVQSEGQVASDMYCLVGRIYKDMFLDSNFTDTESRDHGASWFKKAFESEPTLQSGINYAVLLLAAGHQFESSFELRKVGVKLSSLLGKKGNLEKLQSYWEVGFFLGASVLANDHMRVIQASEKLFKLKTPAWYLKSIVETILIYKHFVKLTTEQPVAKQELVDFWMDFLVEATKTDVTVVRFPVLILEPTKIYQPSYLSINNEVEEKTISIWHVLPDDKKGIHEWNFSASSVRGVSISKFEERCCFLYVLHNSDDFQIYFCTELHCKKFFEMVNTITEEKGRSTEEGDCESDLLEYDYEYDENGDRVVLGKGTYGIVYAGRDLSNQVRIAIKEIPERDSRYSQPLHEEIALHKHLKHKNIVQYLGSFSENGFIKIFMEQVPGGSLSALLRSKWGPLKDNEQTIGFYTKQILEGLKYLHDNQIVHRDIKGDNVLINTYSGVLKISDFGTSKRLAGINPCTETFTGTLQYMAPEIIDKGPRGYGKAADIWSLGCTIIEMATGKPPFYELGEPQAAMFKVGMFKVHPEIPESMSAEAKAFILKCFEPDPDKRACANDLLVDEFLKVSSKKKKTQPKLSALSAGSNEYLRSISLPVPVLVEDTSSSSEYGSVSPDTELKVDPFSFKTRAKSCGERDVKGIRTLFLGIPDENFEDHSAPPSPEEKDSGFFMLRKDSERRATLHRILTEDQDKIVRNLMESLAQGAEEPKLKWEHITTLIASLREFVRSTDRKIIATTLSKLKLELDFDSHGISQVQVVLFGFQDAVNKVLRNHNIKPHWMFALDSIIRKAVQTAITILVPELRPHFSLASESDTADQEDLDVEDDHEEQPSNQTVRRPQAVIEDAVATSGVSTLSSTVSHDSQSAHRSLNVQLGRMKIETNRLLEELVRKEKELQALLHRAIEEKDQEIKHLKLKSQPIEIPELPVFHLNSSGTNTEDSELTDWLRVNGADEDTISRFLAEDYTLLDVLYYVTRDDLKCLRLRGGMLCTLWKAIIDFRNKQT
ACVR2A, sequence (P27037 whole entry): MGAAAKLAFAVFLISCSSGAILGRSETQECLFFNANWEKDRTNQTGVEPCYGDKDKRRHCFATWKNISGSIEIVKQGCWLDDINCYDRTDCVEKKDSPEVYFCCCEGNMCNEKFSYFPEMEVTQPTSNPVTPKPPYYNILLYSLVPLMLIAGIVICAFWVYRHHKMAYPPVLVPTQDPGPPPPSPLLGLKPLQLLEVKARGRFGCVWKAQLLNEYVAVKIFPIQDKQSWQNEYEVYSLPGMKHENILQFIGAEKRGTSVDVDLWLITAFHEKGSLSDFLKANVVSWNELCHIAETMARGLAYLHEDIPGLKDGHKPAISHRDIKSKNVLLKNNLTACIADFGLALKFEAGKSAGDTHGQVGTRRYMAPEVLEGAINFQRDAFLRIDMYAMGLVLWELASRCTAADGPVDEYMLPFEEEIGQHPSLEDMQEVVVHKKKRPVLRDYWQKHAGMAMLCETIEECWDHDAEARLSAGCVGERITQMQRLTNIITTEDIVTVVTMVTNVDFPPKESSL
MAPK10 (JNK3), sequence (P53779 whole entry): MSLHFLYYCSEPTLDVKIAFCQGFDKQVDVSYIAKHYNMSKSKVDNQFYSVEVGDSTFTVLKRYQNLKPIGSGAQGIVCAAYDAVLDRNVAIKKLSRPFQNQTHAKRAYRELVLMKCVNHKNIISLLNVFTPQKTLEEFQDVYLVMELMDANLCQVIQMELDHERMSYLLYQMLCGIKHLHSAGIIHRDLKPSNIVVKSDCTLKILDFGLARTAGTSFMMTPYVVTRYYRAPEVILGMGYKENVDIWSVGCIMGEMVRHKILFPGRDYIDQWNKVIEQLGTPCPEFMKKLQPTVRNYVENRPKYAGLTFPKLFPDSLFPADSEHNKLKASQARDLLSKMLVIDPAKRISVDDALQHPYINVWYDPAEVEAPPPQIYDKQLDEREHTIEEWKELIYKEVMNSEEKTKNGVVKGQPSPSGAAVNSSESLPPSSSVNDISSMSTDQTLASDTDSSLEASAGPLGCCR
EPHA3, sequence (P29320 whole entry): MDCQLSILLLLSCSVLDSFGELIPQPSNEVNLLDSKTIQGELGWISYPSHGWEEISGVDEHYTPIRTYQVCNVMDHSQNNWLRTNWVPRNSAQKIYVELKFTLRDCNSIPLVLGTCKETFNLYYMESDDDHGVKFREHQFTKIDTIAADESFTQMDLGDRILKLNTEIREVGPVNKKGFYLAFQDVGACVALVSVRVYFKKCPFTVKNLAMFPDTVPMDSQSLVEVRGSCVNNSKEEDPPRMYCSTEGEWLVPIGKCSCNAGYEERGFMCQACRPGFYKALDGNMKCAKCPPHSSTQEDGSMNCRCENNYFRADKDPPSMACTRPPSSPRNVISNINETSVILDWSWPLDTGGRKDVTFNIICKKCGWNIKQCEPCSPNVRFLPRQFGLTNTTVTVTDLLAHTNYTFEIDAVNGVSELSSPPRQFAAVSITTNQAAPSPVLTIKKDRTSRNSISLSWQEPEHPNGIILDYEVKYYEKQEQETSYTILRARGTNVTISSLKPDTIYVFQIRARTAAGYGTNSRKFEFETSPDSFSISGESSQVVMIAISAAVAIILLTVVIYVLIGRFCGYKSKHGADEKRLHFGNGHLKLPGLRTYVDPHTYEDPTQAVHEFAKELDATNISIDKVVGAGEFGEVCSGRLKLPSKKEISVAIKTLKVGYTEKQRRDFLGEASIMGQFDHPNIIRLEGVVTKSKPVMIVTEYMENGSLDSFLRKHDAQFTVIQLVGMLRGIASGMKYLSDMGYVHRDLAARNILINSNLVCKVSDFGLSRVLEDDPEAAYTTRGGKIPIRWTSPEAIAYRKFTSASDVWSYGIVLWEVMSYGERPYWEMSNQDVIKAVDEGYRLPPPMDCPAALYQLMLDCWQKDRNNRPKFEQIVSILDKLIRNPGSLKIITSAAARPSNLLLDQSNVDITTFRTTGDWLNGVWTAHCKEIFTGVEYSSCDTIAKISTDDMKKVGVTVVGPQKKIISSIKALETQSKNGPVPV
TESK1, sequence (Q15569 whole entry): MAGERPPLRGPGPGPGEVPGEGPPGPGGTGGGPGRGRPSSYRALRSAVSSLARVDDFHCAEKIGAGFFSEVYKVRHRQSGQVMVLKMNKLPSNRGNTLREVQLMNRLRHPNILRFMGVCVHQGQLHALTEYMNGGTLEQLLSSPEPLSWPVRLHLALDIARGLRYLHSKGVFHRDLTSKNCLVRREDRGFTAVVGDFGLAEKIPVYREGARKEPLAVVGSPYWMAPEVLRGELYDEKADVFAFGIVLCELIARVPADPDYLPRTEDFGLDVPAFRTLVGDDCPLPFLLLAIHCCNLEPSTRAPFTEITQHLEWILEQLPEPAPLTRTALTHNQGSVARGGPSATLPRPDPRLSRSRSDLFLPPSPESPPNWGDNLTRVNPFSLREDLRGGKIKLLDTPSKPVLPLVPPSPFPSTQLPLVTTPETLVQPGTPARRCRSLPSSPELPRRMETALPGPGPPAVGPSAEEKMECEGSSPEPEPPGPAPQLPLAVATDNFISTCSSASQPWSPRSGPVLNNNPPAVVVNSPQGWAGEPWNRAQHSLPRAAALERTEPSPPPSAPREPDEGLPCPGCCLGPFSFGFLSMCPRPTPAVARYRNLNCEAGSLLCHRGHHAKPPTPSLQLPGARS
MAP2K6 (MKK6) S207E T211E, sequence (P52564 whole entry S207E/T211E): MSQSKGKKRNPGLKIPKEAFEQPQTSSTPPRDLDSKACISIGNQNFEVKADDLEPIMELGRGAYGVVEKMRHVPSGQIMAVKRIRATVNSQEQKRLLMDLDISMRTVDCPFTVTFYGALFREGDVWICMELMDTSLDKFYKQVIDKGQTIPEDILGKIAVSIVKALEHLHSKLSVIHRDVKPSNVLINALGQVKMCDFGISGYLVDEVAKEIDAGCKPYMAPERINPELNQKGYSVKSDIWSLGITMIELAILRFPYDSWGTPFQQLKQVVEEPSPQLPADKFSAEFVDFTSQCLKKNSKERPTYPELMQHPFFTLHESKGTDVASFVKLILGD

Compound: COc1ccc2nc3cc(Cl)ccc3c(Nc3cc(CN4CCCC4)c(O)c(CN4CCCC4)c3)c2n1 [Pyronaridine, 4-[(7-Chloro-2-methoxybenzo[b][1,5]naphthyridin-10-yl)amino]-2,6-bis(1-pyrrolidinylmethyl)phenol phosphate (1:4)]
- inhibition at 1 µM (ALK F1174L): 8%
- inhibition at 1 µM (CDK9 (Inactive)): -10%
- inhibition at 1 µM (GAK): 28%
- inhibition at 1 µM (MAP3K14 (NIK)): 2%
- inhibition at 1 µM (WEE1): 10%
- inhibition at 1 µM (ACVR1 (ALK2)): 0%
- inhibition at 1 µM (EPHA3): 11%
- inhibition at 1 µM (CDK2/cyclin A1): 5%
- inhibition at 1 µM (ALK C1156Y): -2%
- inhibition at 1 µM (MAP3K11 (MLK3)): 2%
- inhibition at 1 µM (CAMK2G (CaMKII gamma)): -1%
- inhibition at 1 µM (TESK1): -2%
- inhibition at 1 µM [1]: 10%
- inhibition at 1 µM (TTK): 4%
- inhibition at 1 µM (EIF2AK2 (PKR)): 4%
- inhibition at 1 µM (NUAK2): 2%
- inhibition at 1 µM (BRAF): -11%
- inhibition at 1 µM (GRK1): 1%
- inhibition at 1 µM (WNK3): 7%
- inhibition at 1 µM (ERN1): 6%
- inhibition at 1 µM (ULK1): -4%
- inhibition at 1 µM (MAP3K5 (ASK1)): -11%
- inhibition at 1 µM (PKN2 (PRK2)): 6%
- inhibition at 1 µM (MAPK10 (JNK3)): 5%
- inhibition at 1 µM (ACVR2A): -6%
- inhibition at 1 µM (MKNK2 (MNK2)): 2%
- inhibition at 1 µM (CAMKK1 (CAMKKA)): 15%
- inhibition at 1 µM (KIT D820E): -4%
- inhibition at 1 µM (CDK8/cyclin C): 3%
